According to patent US20210060016A1, “ANTICANCER AGENT” (JAPANESE FOUNDATION FOR CANCER RESEARCH, priority 2017, published 2021):

Tests used:
tankyrase 2 = biological target: T1, tankyrase 2 (Homo sapiens, UniProt Q9H2K2); assay: Tankyrase inhibitory activity test (ELISA, auto-poly(ADP-ribosyl)ation), TNKS2; assay type: biochemical; details: Flag-tagged tankyrase 2 (ANK5+SAM+PARP), read-out: TNKS2 (inhibitory activity against tankyrase 2), IC50 rating
T1 construct: tankyrase 2 (613-1, 116aa, ANK5+SAM+PARP); made in house; host or cells: cell-free protein expression system
Protocol: The enzymatic activity of tankyrase 1 and the enzymatic activity of tankyrase 2 were measured by the ELISA method based on assessment of auto-poly(ADP-ribosyl)ation to evaluate the tankyrase inhibitory activity of the compound prepared in each of Compound Examples (test compound) (inhibitory activity against tankyrase 1 (TNKS1) and inhibitory activity against tankyrase 2 (TNKS2)). First, Flag-tagged tankyrase 1 (1,024-1, 327aa, SAM+PARP) and tankyrase 2 (613-1, 116aa, ANK5+SAM+PARP) were synthesized with a cell-free protein expression system, and diluted with a Tris buffer solution (50 mM Tris-HCl (pH 8.0), 150 mM NaCl, 10% glycerol). 50 μL of the diluted tankyrase 1 or tankyrase 2 was added to a plate with an anti-FLAG M2 monoclonal antibody immobilized thereon (Anti-FLAG High-Sensitivity M2-Coated Plate) (Sigma-Aldrich), and the mixture was left to stand overnight at 4° C. Thereafter, the plate was washed four times with a PBS (PBST) buffer containing 0.1% TritonX-100.
Subsequently, the test compound diluted with an assay buffer (50 mM Tris-HCl (pH 8.0), 4 mM MgCl2, 0.2 mM DTT) (DMSO was used as a control) was added to each well of the plate, and the mixture was left to stand at room temperature for 10 minutes. Thereafter, a biotin-labeled NAD solution (225 μM NAD, 25 μM 6-Biotin-17-NAD (Travigen, Inc.)) was added and mixed as a donor substrate, and the mixture was reacted at 30° C. for 45 minutes. To blank wells was added distilled water instead of the biotin-labeled NAD solution. After the reaction, the plate was washed with a PBST buffer four times. Thereafter, HRP (horseradish peroxidase)-labeled streptavidin (Travigen, Inc.) was diluted with a PBS buffer by 1,000 times, and added to each well, and the mixture was reacted at room temperature for 20 minutes. The plate was washed with a PBST buffer four times, a chemiluminescent substrate solution TACS-Sapphire (Travigen, Inc.) was then added to each well, the mixture was reacted at room temperature for 20 minutes, and thechemiluminescence intensity was measured using a chemiluminescence measuring apparatus.
The residual enzymatic activity in the presence of the test compound was determined from the following expression. On the basis of the residual enzymatic activity at each of multiple concentrations of the test compound, the enzyme inhibitory activity was calculated in terms of a 50%-inhibition concentration (IC50 value) using data analysis software Origin (LightStone Corp.). Residual activity (%)={(chemiluminescence intensity with test compound added)−(chemiluminescence intensity of blank)}/{(chemiluminescence intensity of control)−(chemiluminescence intensity of blank))

[1] = tested on: human colorectal cancer cell line COLO-320DM; assay: Cell proliferation inhibitory activity test (Celltiter-Glo); assay type: cell-based; details: 96 hours, read-out: COLO-320DM (cell proliferation inhibitory activity), G150 rating
Protocol: The cell proliferation inhibitory activity of the compound, which had been prepared in each of Compound Examples, against the human colorectal cancer cell line COLO-320DM was evaluated by Celltiter-Glo Luminescent Cell Viability Assay (Promega Corporation; G7573). COLO-320DM cells were cultured in RPMI-1640 medium containing 2 mM glutamine (Wako Pure Chemical Industries, Ltd; 189-02025) supplemented with 10% fetal bovine serum. The cultured cells were washed with PBS, and then dissociated with trypsin/EDTA, and a cell solution with 3×10^4 cells/mL was prepared.
Subsequently, the cell solution was seeded in a 96-well microplate (Thermo/Nunc Company; 136101) in an amount of 70 μL per well, and cultured overnight under the condition of 37° C. and 5% COz. The next day, a test compound solution obtained by diluting the test compound (DMSO solution) with a cell culture medium (final concentration of DMSO was 1%) was added in an amount of 10 μL per well, and the mixture was reacted under the condition of 37° C. and 5% CO2 for 96 hours (a 1% DMSO solution was used as a control). Thereafter, a Celltiter-Glo Luminescent Cell Viability Assay reagent was added (Promega Corporation; G7573) in an amount of 80 μL per well, the mixture was stirred with a shaker for 2 minutes while light was blocked with an aluminum foil, and the mixture was incubated at room temperature for 10 minutes.
Thereafter, a luminescence signal was measured with a luminometer (Biotech Company; Synergy). The ratio of cell proliferation in each compound addition group to cell proliferation in a control group containing no test compound solution, where cell proliferation in the control group is 100%, was determined, and the value of a compound concentration necessary for suppressing the amount of residual cells to 50% of that in the control (G150) was calculated as the cell proliferation inhibitory activity. For the COLO-320DM (cell proliferation inhibitory activity against COLO-320DM) of each test compound as measured through the above-mentioned method, a test compound having a G150 value of less than 1 μM was rated “A”, a test compound having a G150 value of 1 μM or more and less than 10 μM was rated “B”, a test compound having a G150 value of 10 μM or more was rated “C”, and an unevaluated test compound was designated as “NT”.

T1 sequence (Q9H2K2 613-1166): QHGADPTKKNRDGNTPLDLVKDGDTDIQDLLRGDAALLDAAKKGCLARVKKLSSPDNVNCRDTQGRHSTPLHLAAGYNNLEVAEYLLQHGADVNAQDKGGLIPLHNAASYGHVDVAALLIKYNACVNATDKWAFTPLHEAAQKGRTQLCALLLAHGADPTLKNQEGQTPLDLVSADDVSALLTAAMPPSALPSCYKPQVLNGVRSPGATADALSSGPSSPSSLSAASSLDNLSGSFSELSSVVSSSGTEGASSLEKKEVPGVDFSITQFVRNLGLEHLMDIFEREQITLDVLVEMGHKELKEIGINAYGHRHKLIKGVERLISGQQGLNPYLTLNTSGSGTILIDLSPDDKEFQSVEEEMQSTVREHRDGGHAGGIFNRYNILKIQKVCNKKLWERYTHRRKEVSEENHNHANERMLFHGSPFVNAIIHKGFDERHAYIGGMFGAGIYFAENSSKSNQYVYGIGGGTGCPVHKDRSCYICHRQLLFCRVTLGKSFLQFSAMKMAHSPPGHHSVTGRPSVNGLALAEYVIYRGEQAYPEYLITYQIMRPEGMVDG

IC50 (tankyrase 2) [nM]	IC50 [1] [nM]	SMILES
< 20	< 1000	CCOc1ccc(-c2n[nH]nc2[C@H]2NC(=O)c3cccc(C)c3N2)cc1 [Compound Example 101, (2R)-2-[5-(4-Ethoxyphenyl)-2H-1,2,3-triazol-4-yl]-8-methyl-2,3-dihydro-1H-quinazolin-4-one]
20 to 200	≥ 10000	COc1ccc(-c2c[nH]nc2C2NC(=O)c3cccc(C)c3N2)cc1 (stereo not shown) [Compound Example 113, 2-[4-(4-Methoxyphenyl)-1H-pyrazol-3-yl]-8-methyl-2,3-dihydro-1H-quinazolin-4-one]
